The values that follow come from patent publication US12054497B2, “Substituted heterocyclic fused cyclic compound, preparation method therefor and pharmaceutical use thereof” (GENFLEET THERAPEUTICS (SHANGHAI) INC., priority 2019, dated 2024).

Like-named read-outs stand apart in the source and are kept apart here.

Common to all, as to assay type: cell-based, human
The test system of test [1] is NCI-H358 cells with Kras G12C mutation. As to the kind of experiment: Cell proliferation inhibition experiment, 3D spheroid, CellTiter-Glo (Test Example 1). The following applies: 5 days. On the procedure: (§1) NCI-H358 was a human NSCLC cell line with Kras G12C mutation, which was cultured in a RPMI-1640 medium with 10% fetal bovine serum (FBS). A549 was a human lung adenocarcinoma cell line with Kras G12S mutation, which was cultured in an F-12K medium with 10% FBS. Cells in logarithmic growth phase were detached with trypsin and EDTA, collected and counted, and H358 was regulated to 1.8E4 cells/ml by using an RPMI-1640 medium with 2% FBS, while A549 was regulated to 8.9E3 cells/ml with an F-12K medium containing 2% FBS. 800 (45 μl) H358 cells and 400 (45 μl) A549 cells were seeded to 384-well spheroid plates, respectively, and cultured overnight to establish 3D cell models. 1000× stock solutions of compounds at a concentration gradient of 3.16 were prepared by using DMSO, and diluted 100 times by the medium with 2% FBS into 10× stock solutions of compounds. On the day after cell seeding, 5 μl of 10× stock solution of a compound was added to each well of cell culture plate, with a final concentration being 1× and a DMSO content of 0.1%. DMSO was used as the control, and the medium with 2% FBS was used as blank control group. After 5 days of cell culture with the compound, 25 μl of CellTiter-Glo working solution was added to each well, and mixed uniformly at 400 rpm and incubation for 30 minutes. After standing at room temperature for 30 minutes, 40 μl of mixed solution was transferred to a 384-well plate with white clear bottom. A value of luminescence was then read, and a cell proliferation inhibition rate (IR) (%)=(RLU control-RLU compound)/(RLU control−RLU blank)×100%. The value of IC50 was calculated by fitting a gradiently diluted concentration of the compound and the corresponding cell proliferation inhibition rate using a Prism 6 four-parameter method.
(In general: ATP-based viability assays read luminescence as a measure of living cells.)

Test [2] has as its system A549 cells with Kras G12S mutation. Described as above. The following applies: 5 days. On the procedure:
as §1

The subject of test [3] is MIA PaCa-2 cells with Kras G12C mutation. The experiment in a line: Cell proliferation inhibition experiment, 3D spheroid, CellTiter-Glo (Test Example 3). The following applies: Homo sapiens, MIA PaCa-2, 120 h, 5 days, read-out: MIA-PaCa2 IC50. The method, then:
MIA PaCa-2 was a human pancreatic carcinoma cell line with Kras G12C mutation, which was cultured in a DMEM with 10% FBS and 2.5% Horse serum. A549 was a human lung adenocarcinoma cell line with Kras G12S mutation, which was cultured in an F-12K medium with 10% FBS. Cells in logarithmic growth phase were detached with trypsin and EDTA, collected and counted, and 200 MIA PaCa-2 cells and 400 A549 cells were seeded to 384-well spheroid plates, respectively, and cultured overnight to establish 3D cell models. 1000× stock solutions of compounds at a concentration gradient of 3.16 were prepared by using DMSO, and diluted 100 times by the medium into 10× stock solutions of compounds. On the day after cell seeding, 10× stock solution of a compound was added to each well of cell culture plate, with a final concentration being 1× and a DMSO content of 0.1%. DMSO was used as the control, and the medium was used as the blank. After 5 days of cell culture with the compound, 30 μl of CellTiter-Glo working solution was added to each well, and mixed uniformly and incubation for 30 minutes. After standing at room temperature for 30 minutes, 40 μl of mixed solution was transferred to a 384-well plate with white unclear bottom. A value of luminescence intensity was then read, and a cell proliferation inhibition rate (IR) (%)=(RLU control−RLU compound)/(RLU control−RLU blank)×100%. The value of IC50 was calculated by fitting a gradiently diluted concentration of the compound and the corresponding cell proliferation inhibition rate using an XLFit four-parameter method.

Test [4] relates to phosphorylated ERK in MIA PaCa2 cells with Kras G12C mutation. As to the kind of experiment: p-ERK HTRF assay for cells (Test Example 2). The following applies: MIA PaCa2 cells, 2 hours with compound, read-out: p-ERK IC50. The method, then: MIA PaCa2 was a human pancreatic carcinoma cell line with Kras G12C mutation, which was cultured in a DMEM with 10% FBS and 2.5% Horse serum. Cells in logarithmic growth phase were detached with trypsin and EDTA, collected and counted, and 2.5E4 cells were seeded to a 96-well cell culture plate and cultured overnight. 1000× stock solutions of compounds at a concentration gradient of 3.16 were prepared by using DMSO, and diluted 200 times by the medium into 5× stock solutions of compounds. On the day after cell seeding, 5× stock solution of a compound was added to each well of cell culture plate, with a final concentration being 1× and a DMSO content of 0.1%. DMSO was used as the control. The residual culture was removed after culturing for 2 hours with the compound. To each well, 50 ul of cell lysis buffer was added and mixed uniformly and incubation for 30 minutes. Subsequently, 16 ul of mixed solution was transferred to a 96-well plate with white unclear bottom, and 16 ul of cell lysis buffer was added to the blank control group. After the completion of transfer, 4 ul of p-ERK HTRF antibody mixture was added to each well, and a value of fluorescence intensity was read after incubation for 4 hours. The inhibition rate (IR) of the compound was calculated by the following equation: IR (%)=(RLU control-RLU compound)/(RLU control−RLU blank)×100%. The value of IC50 was calculated by fitting a gradiently diluted concentration of the compound and the corresponding cell proliferation inhibition rate using a Prism 8 four-parameter method.

As a reminder, the IC50 is the concentration at which inhibition is half-maximal. With `C=CC(=O)N1CC2C(=O)N(C)c3c(c4cc(F)c(-c5c(O)cccc5F)nc4n(-c4c(C(F)(F)F)ccnc4C(C)C)c3=O)N2C[C@H]1C` (single isomer, unassigned) [Compound Z49-2], the values for the IC50 in test [1] and in test [2] were 44 nM and more than 30000 nM, respectively.

Consider `C=CC(=O)N1CCN2c3c(c(=O)n(-c4c(C)ccnc4C(C)C)c4nc(-c5c(O)cccc5F)c(F)cc34)N(C)C(=O)[C@H]2C1` [Compound Z9, (4aR)-3-acryloyl-11-fluoro-10-(2-fluoro-6-hydroxyphenyl)-8-(2-isopropyl-4-methylpyridin-3-yl)-6-methyl-2,3,4,4a,6,8-hexahydro-1H-pyrazino[1′,2′:4,5]pyrazino[2,3-c][1,8,8]naphthyridin-5,7-dione], for which the IC50 in test [1] (Homo sapiens, NCI-H358, 120 h) stood at 32 nM; in test [3] it was 74 nM; in test [4] (Homo sapiens, MIA PaCa-2, 2 h), 187 nM.

Take `C=CC(=O)N1CCN2c3c(c(=O)n(-c4c(C)ccnc4C(C)C)c4nc(-c5c(C)ccc6[nH]ncc56)c(F)cc34)OC[C@H]2C1` [Compound Z29, (4aR)-3-acryloyl-11-fluoro-8-(2-isopropyl-4-methylpyridin-3-yl)-10-(5-methyl-1H-indazol-4-yl)-1,2,3,4,4a,5-hexahydropyrazino[1′,2′:4,5][1,4]oxazino[2,3-c][1,8]naphthyridin-7(8H)-one]: the 50% inhibitory concentration (IC50) in test [1] (Homo sapiens, NCI-H358, 120 h) is 166 nM; in test [2] (Homo sapiens, A549, 120 h), 21800 nM.

In the case of `[2H]C([2H])([2H])N1C(=O)[C@H]2CN(C(=O)C=C)[C@H](C)CN2c2c1c(=O)n(-c1c(C(C)C)ncnc1C(C)C)c1nc(-c3c(F)cccc3OC)c(F)cc21` [Compound Z44a, (2R,4aR)-3-acryloyl-8-(4,6-diisopropylpyrimidin-5-yl)-11-fluoro-10-(2-fluoro-6-methoxyphenyl)-2-methyl-6-(methyl-d3)-2,3,4,4a,6,8-hexahydro-1H-pyrazino[1′,2′:4,5]pyrazino[2,3-c][1,8]naphthyridin-5,7-dione], the IC50 in test [1] (Homo sapiens, NCI-H358, 120 h) amounted to 24 nM; in test [2] (Homo sapiens, A549, 120 h), 9240 nM; in test [3], 103 nM; in test [4] (Homo sapiens, MIA PaCa-2, 2 h) it was 170 nM.

Regarding `C=CC(=O)N1CCN2c3c(c(=O)n(-c4c(C5CC5)ncnc4C4CC4)c4nc(-c5c(F)cccc5OC)c(F)cc34)N(C)C(=O)[C@H]2C1` [Compound Z32, (4aR)-3-acryloyl-11-fluoro-10-(2-fluoro-6-methoxyphenyl)-8-(4,6-bicyclopropylpyrimidin-5-yl)-6-methyl-2,3,4,4a,6,8-hexahydro-1H-pyrazino[1′,2′:4,5]pyrazino[2,3-c][1,8]naphthyridin-5,7-dione], the IC50 was 64 nM in test [1] (Homo sapiens, NCI-H358, 120 h); more than 30000 nM in test [2] (Homo sapiens, A549, 120 h); 170 nM in test [3].

`C=CC(=O)N1C[C@@H]2C(=O)Nc3c(c4cc(F)c(-c5c(O)cccc5F)nc4n(-c4c(C)ccnc4C(C)C)c3=O)N2C[C@H]1C` (single isomer, unassigned) [Compound Z35-1]: the results for the IC50 in test [1], in test [2] and in test [4] were 37 nM, more than 30000 nM and 249 nM, respectively.

With `C=CC(=O)N1CCN2c3c(c(=O)n(-c4c(C5CC5)ncnc4C4CC4)c4nc(-c5c(O)cccc5F)c(Cl)cc34)N(C)C(=O)[C@H]2C1` [Compound Z72], in test [4] (Homo sapiens, MIA PaCa-2, 2 h), the IC50 worked out at 106 nM.

In the case of `C=CC(=O)N1C[C@@H]2C(=O)Nc3c(c4cc(F)c(-c5c(O)cccc5F)nc4n(-c4c(C)ccnc4C(C)C)c3=O)N2C[C@H]1C` (single isomer, unassigned) [Compound Z35-2], the IC50 in test [1] is 6 nM; in test [2], more than 30000 nM; in test [4] it was 49 nM.

With `C=CC(=O)N1CCN2c3c(c(=O)n(-c4c(C)ccnc4C(C)C)c4nc(-c5c(O)cccc5F)c(F)cc34)N(CC)C(=O)[C@H]2C1` (single isomer, unassigned) [Compound Z30-1], the IC50 was 804 nM in test [1] and more than 30000 nM in test [2].

Take `C=CC(=O)N1C[C@@H]2C(=O)N(C)c3c(c4cc(F)c(-c5c(O)cccc5F)nc4n(-c4c(C(C)C)nn(C)c4C)c3=O)N2C[C@H]1C` [Compound Z47, (2R,4aR)-3-acryloyl-11-fluoro-10-(2-fluoro-6-hydroxyphenyl)-8-(3-isopropyl-1,5-dimethyl-1H-pyrazol-4-yl)-2,6-dimethyl-2,3,4,4a,6,8-hexahydro-1H-pyrazino[1′,2′:4,5]pyrazino[2,3-c][1,8]naphthyridin-5,7-dione]: the IC50 was 31 nM in test [1] (Homo sapiens, NCI-H358, 120 h); more than 30000 nM in test [2] (Homo sapiens, A549, 120 h); 83 nM in test [3].

For the molecule `C=CC(=O)N1CCN2c3c(c(=O)n(-c4c(C)ccnc4C(C)C)c4nc(-c5c(O)cccc5F)c(F)cc34)OC[C@H]2C1` (single isomer, unassigned) [Compound Z1-2], the IC50 in test [1] came out at 198 nM; in test [2] (Homo sapiens, A549, 120 h), 16500 nM.

Regarding `C=CC(=O)N1C[C@@H]2C(=O)N(C)c3c(c4cc(F)c(-c5c(O)cccc5F)nc4n(-c4nccnc4C(C)C)c3=O)N2C[C@H]1C` [Compound Z22, (2R,4aR)-3-acryloyl-11-fluoro-10-(2-fluoro-6-hydroxyphenyl)-8-(3-isopropylpyrazin-2-yl)-2,6-dimethyl-2,3,4,4a,6,8-hexahydro-1H-pyrazino[1′,2′:4,5]pyrazino[2,3-c][1,8]naphthyridin-5,7-dione], the IC50 in test [1] (Homo sapiens, NCI-H358, 120 h) was 67 nM; in test [2] (Homo sapiens, A549, 120 h), more than 30000 nM; in test [3], 180 nM.

Turning to `C=CC(=O)N1CCN2c3c(cnc4c3CCN(c3c(C)ccc5[nH]ncc35)C4)OC[C@H]2C1` [Compound Z2, (R)-1-(3-(5-methyl-1H-indazol-4-yl)-1,2,3,4,8a,9,11,12-octahydropyrazino[1′,2′:4,5][1,4]oxazino[2,3-c][1,7]naphthyridin-10(8H)-yl)propyl-2-en-1-one], the IC50 is 773 nM in test [1] and more than 10000 nM in test [2].

`C=CC(=O)N1CCN2c3c(c(=O)n(-c4c(C)ccnc4C(C)C)c4nc(-c5c(O)cccc5F)c(F)cc34)OC[C@@H]2C1` [Compound Z28, (4aS)-3-acryloyl-11-fluoro-10-(2-fluoro-6-hydroxyphenyl)-8-(2-isopropyl-4-methylpyridin-3-yl)-1,2,3,4,4a,5-hexahydropyrazino[1′,2′:4,5][1,4]oxazino[2,3-c][1,8]naphthyridin-7(8H)-one]: the half-maximal inhibitory concentration (IC50) was 90 nM in test [1] (Homo sapiens, NCI-H358, 120 h); 16900 nM in test [2] (Homo sapiens, A549, 120 h); 234 nM in test [3].
